Laboratory results as given in paper PMC10892984, “Novel Antineoplastic Inducers of Mitochondrial Apoptosis in Human Cancer Cells” (Molecules, 2024).

Tests used:
DU-145 cells = assay: Cytochrome c assay (mitochondrial and cytosolic), ELISA; type: cell-based, human
Method: (§1) Cell numbers of 2 × 10^6 PC-3 and DU-145 cells were seeded into a […]. […] The protein content for each fraction was calculated to determine the mass content of cytochrome c in each fraction (pg cytochrome c/mg total protein). The mass content of cytochrome c (pg cytochrome c/mg total protein) was normalized towards the corresponding blank DMSO control and is given in percent (%) of blank DMSO control.

PC-3 cells = assay: as above; type: cell-based, human
Method: as §1

MALME-3M = details: 48 h
T-47D = details: 48 h
[1] = test system: 60 human cancer cell lines
Source text: The defined tumor inhibition criterion (GI50, TGI, or LC50) is recalculated in log10 expression, and the colored bars, which indicate then the sensitivity of the individual tumor cell line to the agent, are given in log10 units. […] The most important feature is at the bottom of the page: the MID (Mean of Inhibition Data) indicates the mean concentration for all tested cell lines required for the drug to reach the defined tumor inhibition criterion (GI50, TGI, or LC50). It is given in Log10GI50, Log10TGI, and Log10LC50. From those values, the corresponding MID is calculated. […] The MID can be transformed from logarithmic into linear concentrations by the formula: c = 10^MID.
The human tumor cell lines of the cancer screening panel are grown in RPMI-1640 medium containing 5% fetal bovine serum (FBS) and 2 mM L-glutamine. For a typical screening experiment, cells are inoculated into 96-well microtiter plates in 100 μL at plating densities ranging from 5000 to 40,000 cells/well, depending on the doubling time of individual cell lines. After cell inoculation, the microtiter plates are incubated at 37 °C, 5% CO2, 95% air, and 100% relative humidity for 24 h prior to the addition of experimental drugs. After 24 h, two plates of each cell line are fixed in situ with trichloroacetic acid (TCA) to represent a measurement of the cell population for each cell line at the time of drug addition (Tz). Experimental drugs are solubilized in dimethyl sulfoxide (DMSO) at 400-fold the desired final maximum test concentration and stored frozen prior to use. At the time of drug addition, an aliquot of frozen concentrate is thawed and diluted to twice the desired final maximum test concentration with a complete medium containing 50 μg/mL gentamicin. Additional four, 10-fold or ½ log serial dilutions are made to provide a total of five drug concentrations plus control. Aliquots of 100 μL of these different drug dilutions are added to the appropriate microtiter wells already containing 100 μL of the medium, resulting in the required final drug concentrations.
Following drug addition, the plates are incubated for an additional 48 h at 37 °C, 5% CO2, 95% air, and 100% relative humidity. For adherent cells, the assay is terminated by the addition of cold TCA. Cells are fixed in situ by the gentle addition of 50 μL of cold 50% (m/v) TCA (final concentration, 10% TCA) and incubated for 60 min at 4 °C. The supernatant is discarded, and the plates are washed five times with tap water and air dried. Sulforhodamine B (SRB) solution [100 μL at 0.4% (m/v) in 1% acetic acid] is added to each well, and plates are incubated for 10 min at room temperature. After staining, unbound dye is removed by washing five times with 1% acetic acid, and the plates are air dried. Bound stain is subsequently solubilized with 10 mM trizma® base [2-amino-2-(hydroxymethyl)-1,3-propandiol, tris base, trometamol], and the absorbance is read on an automated plate reader at a wavelength of λ = 515 nm. For suspension cells, the methodology is the same, except that the assay is terminated by fixing settled cells at the bottom of the wells by gently adding 50 μL of 80% TCA (final concentration, 16% TCA). Using the seven absorbance measurements [time zero, (Tz), control growth, (C), and test growth in the presence of the drug at the five concentration levels (Ti)], the percentage growth is calculated at each of the drug concentration levels. Percentage growth inhibition is calculated as:[(Ti − Tz)/(C − Tz)] × 100 for concentrations for which Ti ≥ Tz [(Ti − Tz)/Tz] × 100 for concentrations for which Ti < Tz
Three dose-response parameters are calculated for each experimental agent.

[2] = 25 µM, 50 µM and 75 µM, 48 h post-treatment
[3] = Homo sapiens, 48 h, read-out: LC50

Question: How did the “toxicity for the cell line” value (DU-145 cells; [2]) turn out when `COc1cc2c(c(OC)c1OC)-c1ccc(NNC(N)=S)c(=O)cc1C(NC(C)=O)CC2` [Compound 2, N-[(aS,7S)-10-(2-carbamothioylhydrazinyl)-1,2,3-trimethoxy-9-oxo-5,6,7,9-tetrahydrobenzo[a]heptalen-7-yl]acetamide monohydrate × ⅔ (ethyl acetate)] was run?
Answer: Its value is “highly toxic”.

Question: And the “difference in the cytochrome c-residing cellular compartment” value (DU-145 cells; 48 h, stated as less significantly than in PC-3)?
Answer: Its value is “failed to induce a significant difference”.

Question: What about the “toxicity for the cell line” value (PC-3 cells; [2]) of the same molecule?
Answer: The value was “highly toxic”.

Question: And the “difference in the cytochrome c-residing cellular compartment” value (PC-3 cells; 48 h)?
Answer: The value was “failed to induce a significant difference”.

Question: What about the GI50 (CCRF-CEM; Homo sapiens, 48 h) of the same molecule?
Answer: The GI50 was 422 nM.

Question: And the CC50 (CCRF-CEM; [3])?
Answer: Its CC50 is > 100 µM.

Question: What about the TGI (CCRF-CEM; leukemia, mutant p53, 48 h) of the same molecule?
Answer: Its TGI is > 100 µM.

Question: What about the TGI (A549; A549, non-small-cell lung cancer, wild-type p53, 48 h) of the same molecule?
Answer: Its TGI is > 100 µM.

Question: What about the GI50 (A549; Homo sapiens, A549, 48 h) of the same molecule?
Answer: Its GI50 is 3.23 µM.

Question: What about the CC50 (A549; Homo sapiens, A549, 48 h, read-out: LC50) of the same molecule?
Answer: The CC50 was > 100 µM.

Question: And the TGI (HOP-62; HOP-62, non-small-cell lung cancer, mutant p53, 48 h)?
Answer: The TGI was > 100 µM.

Question: What about the GI50 (HOP-62; Homo sapiens, HOP-62, 48 h) of the same molecule?
Answer: Its GI50 is 700 nM.

Question: And the CC50 (HOP-62; Homo sapiens, HOP-62, 48 h, read-out: LC50)?
Answer: Its CC50 is > 100 µM.

Question: And the GI50 (NCI-H23; Homo sapiens, NCI-H23, 48 h)?
Answer: Its GI50 is 438 nM.

Question: And the CC50 (NCI-H23; Homo sapiens, NCI-H23, 48 h, read-out: LC50)?
Answer: The CC50 was > 100 µM.

Question: And the TGI (NCI-H23; NCI-H23, non-small-cell lung cancer, mutant p53, 48 h)?
Answer: The TGI was > 100 µM.

Question: And the TGI (HCC-2998; HCC-2998, colon cancer, mutant p53, 48 h)?
Answer: Its TGI is 0.674 µM.

Question: What about the GI50 (HCC-2998; Homo sapiens, HCC 2998, 48 h) of the same molecule?
Answer: The GI50 was 272 nM.

Question: And the CC50 (HCC-2998; Homo sapiens, HCC 2998, 48 h, read-out: LC50)?
Answer: Its CC50 is > 100 µM.

Question: What about the GI50 (KM-12; Homo sapiens, KM12, 48 h) of the same molecule?
Answer: Its GI50 is 255 nM.

Question: And the CC50 (KM-12; Homo sapiens, KM12, 48 h, read-out: LC50)?
Answer: The CC50 was > 100 µM.

Question: And the TGI (KM-12; KM-12, colon cancer, mutant p53, 48 h)?
Answer: Its TGI is 0.801 µM.

Question: And the GI50 (SW-620; Homo sapiens, SW-620, 48 h)?
Answer: The GI50 was 369 nM.

Question: What about the CC50 (SW-620; Homo sapiens, SW-620, 48 h, read-out: LC50) of the same molecule?
Answer: The CC50 was > 100 µM.

Question: What about the TGI (SW-620; SW-620, colon cancer, mutant p53, 48 h) of the same molecule?
Answer: The TGI was > 100 µM.

Question: What about the GI50 (SNB-19; Homo sapiens, SNB-19, 48 h) of the same molecule?
Answer: Its GI50 is 686 nM.

Question: What about the CC50 (SNB-19; Homo sapiens, SNB-19, 48 h, read-out: LC50) of the same molecule?
Answer: The CC50 was > 100 µM.

Question: What about the TGI (SNB-19; SNB-19, CNS cancer (brain tumor), mutant p53, 48 h) of the same molecule?
Answer: Its TGI is > 100 µM.

Question: What about the GI50 (MALME-3M; Homo sapiens, Malme-3M) of the same molecule?
Answer: The GI50 was 394 nM.

Question: What about the CC50 (MALME-3M; Homo sapiens, Malme-3M, read-out: LC50) of the same molecule?
Answer: Its CC50 is > 100 µM.

Question: And the TGI (MALME-3M; MALME-3M, melanoma, wild-type p53)?
Answer: Its TGI is > 100 µM.

Question: And the CC50 (SK-MEL-28; Homo sapiens, SK-MEL-28, 48 h, read-out: LC50)?
Answer: Its CC50 is > 100 µM.

Question: What about the TGI (SK-MEL-28; SK-MEL-28, melanoma, mutant p53, 48 h) of the same molecule?
Answer: Its TGI is > 100 µM.

Question: What about the GI50 (SK-MEL-5; Homo sapiens, SK-MEL-5, 48 h) of the same molecule?
Answer: Its GI50 is 373 nM.

Question: What about the CC50 (SK-MEL-5; Homo sapiens, SK-MEL-5, 48 h, read-out: LC50) of the same molecule?
Answer: Its CC50 is > 100 µM.

Question: What about the TGI (SK-MEL-5; SK-MEL-5, melanoma, wild-type p53, 48 h) of the same molecule?
Answer: Its TGI is 4.71 µM.

Question: And the GI50 (UACC-257; Homo sapiens, UACC-257, 48 h)?
Answer: The GI50 was 646 nM.

Question: What about the CC50 (UACC-257; Homo sapiens, UACC-257, 48 h, read-out: LC50) of the same molecule?
Answer: Its CC50 is > 100 µM.

Question: What about the TGI (UACC-257; UACC-257, melanoma, wild-type p53, 48 h) of the same molecule?
Answer: The TGI was > 100 µM.

Question: What about the GI50 (IGROV1; Homo sapiens, IGROV-1, 48 h) of the same molecule?
Answer: The GI50 was 1180 nM.

Question: What about the CC50 (IGROV1; Homo sapiens, IGROV-1, 48 h, read-out: LC50) of the same molecule?
Answer: Its CC50 is > 100 µM.

Question: And the TGI (IGROV1; IGROV1, ovarian cancer, mutant p53, 48 h)?
Answer: The TGI was > 100 µM.

Question: What about the GI50 (OVCAR-4; Homo sapiens, OVCAR-4, 48 h) of the same molecule?
Answer: Its GI50 is 507 nM.

Question: And the CC50 (OVCAR-4; Homo sapiens, OVCAR-4, 48 h, read-out: LC50)?
Answer: Its CC50 is > 100 µM.

Question: And the TGI (OVCAR-4; OVCAR-4, ovarian cancer, mutant p53, 48 h)?
Answer: The TGI was > 100 µM.

Question: And the GI50 (SK-OV-3; Homo sapiens, SK-OV-3, 48 h)?
Answer: Its GI50 is 1390 nM.

Question: What about the CC50 (SK-OV-3; Homo sapiens, SK-OV-3, 48 h, read-out: LC50) of the same molecule?
Answer: Its CC50 is > 100 µM.

Question: And the TGI (SK-OV-3; SK-OV-3, ovarian cancer, no p53 protein expressed, 48 h)?
Answer: The TGI was > 100 µM.

Question: And the TGI (786-0; 786-0, renal cancer, mutant p53, 48 h)?
Answer: Its TGI is > 100 µM.

Question: What about the GI50 (786-0; Homo sapiens, 786-0, 48 h) of the same molecule?
Answer: The GI50 was 818 nM.

Question: And the CC50 (786-0; Homo sapiens, 786-0, 48 h, read-out: LC50)?
Answer: Its CC50 is > 100 µM.

Question: And the GI50 (ACHN; Homo sapiens, 48 h)?
Answer: Its GI50 is 8.5 µM.

Question: And the CC50 (ACHN; [3])?
Answer: The CC50 was > 100 µM.

Question: What about the TGI (ACHN; renal cancer, wild-type p53, 48 h) of the same molecule?
Answer: Its TGI is > 100 µM.

Question: And the TGI (CAKI-1; CAKI-1, renal cancer, wild-type p53, 48 h)?
Answer: The TGI was > 100 µM.

Question: And the GI50 (CAKI-1; Homo sapiens, CAKI-1, 48 h)?
Answer: Its GI50 is 7.12 µM.

Question: What about the CC50 (CAKI-1; Homo sapiens, CAKI-1, 48 h, read-out: LC50) of the same molecule?
Answer: The CC50 was > 100 µM.

Question: What about the GI50 (RXF 393; Homo sapiens, RXF 393, 48 h) of the same molecule?
Answer: Its GI50 is 298 nM.

Question: And the CC50 (RXF 393; Homo sapiens, RXF 393, 48 h, read-out: LC50)?
Answer: The CC50 was > 100 µM.

Question: And the TGI (RXF 393; RXF 393, renal cancer, mutant p53, 48 h)?
Answer: The TGI was 0.747 µM.

Question: And the GI50 (PC-3; Homo sapiens, PC-3, 48 h)?
Answer: The GI50 was 255 nM.

Question: And the CC50 (PC-3; Homo sapiens, PC-3, 48 h, read-out: LC50)?
Answer: Its CC50 is > 100 µM.

Question: What about the TGI (PC-3; PC-3, prostate cancer, mutant p53 (null p53 protein), 48 h) of the same molecule?
Answer: The TGI was > 100 µM.

Question: What about the TGI (BT-549; BT-549, breast cancer, mutant p53, 48 h) of the same molecule?
Answer: Its TGI is 0.924 µM.

Question: What about the GI50 (BT-549; Homo sapiens, BT-549, 48 h) of the same molecule?
Answer: The GI50 was 294 nM.

Question: And the CC50 (BT-549; Homo sapiens, BT-549, 48 h, read-out: LC50)?
Answer: Its CC50 is > 100 µM.

Question: And the GI50 (T-47D; Homo sapiens, T47D)?
Answer: The GI50 was > 100 µM.

Question: What about the CC50 (T-47D; Homo sapiens, T47D, read-out: LC50) of the same molecule?
Answer: The CC50 was > 100 µM.

Question: What about the TGI (T-47D; T-47D, breast cancer, mutant p53) of the same molecule?
Answer: Its TGI is > 100 µM.

Question: And the GI50 (MDA-MB-468; Homo sapiens, MDA-MB-468, 48 h)?
Answer: The GI50 was 158 nM.

Question: What about the CC50 (MDA-MB-468; Homo sapiens, MDA-MB-468, 48 h, read-out: LC50) of the same molecule?
Answer: Its CC50 is > 100 µM.

Question: What about the TGI (MDA-MB-468; MDA-MB-468, breast cancer, mutant p53, 48 h) of the same molecule?
Answer: Its TGI is 0.464 µM.

Question: And the GI50 ([1]; Homo sapiens, read-out: Mean of Inhibition Data (MID) GI50, 10^MID)?
Answer: Its GI50 is 933 nM.

Question: What about the CC50 ([1]; Homo sapiens, read-out: Mean of Inhibition Data (MID) LC50, 10^MID) of the same molecule?
Answer: Its CC50 is 95.5 µM.

Question: And the “induction of cancer cell death (classification)” value ([1]; NCI 60 panel overall)?
Answer: The value was “acts only cytostatic”.

Question: And the “Mean of Inhibition Data (MID) TGI, 10^MID” value ([1]; mean over all tested cell lines of the NCI 60 panel)?
Answer: The value was 32.359 µM.
